Source: ChEMBL document CHEMBL5346938, “Bis-chalcones: A review of synthetic methodologies and anti-inflammatory effects” (Eur J Med Chem, 2023)
Blank lines part the entries; values can stand above or below the compound they belong to.

Tests used:
[1] = tested on: Rattus norvegicus; test: Anti-inflammatory activity against Carrageenan-induced paw edema in rat assessed as reduction in edema measured after 6 hrs relative to control; format: functional; design: concentration or dose not given beside the values
[2] = target: T1, Seed linoleate 13S-lipoxygenase-1 (Glycine max) (UniProt P08170); test: Inhibition of soybean LOX-1 using linoleic acid as substrate at 100 uM relative to control
T1 sequence (whole entry): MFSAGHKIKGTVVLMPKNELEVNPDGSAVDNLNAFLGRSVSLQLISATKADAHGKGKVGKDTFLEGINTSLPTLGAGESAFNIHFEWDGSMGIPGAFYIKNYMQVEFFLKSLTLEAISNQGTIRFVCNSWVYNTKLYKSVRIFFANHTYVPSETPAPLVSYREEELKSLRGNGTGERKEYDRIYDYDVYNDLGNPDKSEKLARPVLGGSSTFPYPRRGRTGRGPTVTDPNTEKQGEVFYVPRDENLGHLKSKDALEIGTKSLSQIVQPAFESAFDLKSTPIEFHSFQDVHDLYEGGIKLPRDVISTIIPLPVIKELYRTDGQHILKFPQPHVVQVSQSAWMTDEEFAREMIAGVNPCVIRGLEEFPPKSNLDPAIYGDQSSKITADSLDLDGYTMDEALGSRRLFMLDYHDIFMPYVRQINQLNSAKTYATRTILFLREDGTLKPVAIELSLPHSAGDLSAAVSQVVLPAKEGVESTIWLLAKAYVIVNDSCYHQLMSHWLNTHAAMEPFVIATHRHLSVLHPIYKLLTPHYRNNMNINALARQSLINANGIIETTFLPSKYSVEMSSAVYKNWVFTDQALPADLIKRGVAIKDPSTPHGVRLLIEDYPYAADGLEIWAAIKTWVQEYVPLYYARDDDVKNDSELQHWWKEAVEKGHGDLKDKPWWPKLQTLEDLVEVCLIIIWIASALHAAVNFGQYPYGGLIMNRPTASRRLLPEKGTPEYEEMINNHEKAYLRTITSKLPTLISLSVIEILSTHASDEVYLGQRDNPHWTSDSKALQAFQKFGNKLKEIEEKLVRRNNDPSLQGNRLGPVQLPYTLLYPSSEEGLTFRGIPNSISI

[3] = target: T2, Seed linoleate 13S-lipoxygenase-1 (Glycine max, UniProt P08170); test: Inhibition of soybean LOX-1 using linoleic acid as substrate
T2 sequence (P08170 whole entry): T1 sequence (whole entry)

[4] = tested on: Rattus norvegicus; test: Anti-inflammatory activity against carrageenan-induced paw edema in Sprague-Dawley rat assessed as reduction in edema measured after 6 hrs relative to indomethacin; format: functional; design: concentration or dose not given beside the values
[5] = tested on: Rattus norvegicus; test: Anti-inflammatory activity against carrageenan-induced paw edema in Sprague-Dawley rat assessed as reduction in edema measured after 3 hrs relative to indomethacin; format: functional; design: concentration or dose not given beside the values
[6] = tested on: Rattus norvegicus; test: Anti-inflammatory activity against carrageenan-induced paw edema in Sprague-Dawley rat assessed as inhibition of paw edema at 10 mg/kg, ip measured after 3 hrs relative to control; format: functional; design: scale not given: the % may be the effect or the level left
[7] = tested on: Rattus norvegicus; test: Anti-inflammatory activity against carrageenan-induced paw edema in Sprague-Dawley rat assessed as inhibition of paw edema at 10 mg/kg, ip measured after 6 hrs relative to control; format: functional; design: scale not given: the % may be the effect or the level left
[8] = Inhibition of LPS-induced NFkappaB activation in mouse RAW264.7 cells assessed as effect on LPS-induced nuclear translocation of NF-kappaB incubated for 1 hr; format: cell-based; conditions: RAW264.7, 1 h
[9] = tested on: RAW264.7; test: Inhibition of LPS-induced NFkappaB activation in mouse RAW264.7 cells assessed as effect on LPS-induced nuclear translocation of NF-kappaB incubated for 1 hr at 5 uM relative to control; format: cell-based
[10] = target: COX-1/COX-2 (Homo sapiens) (UniProt P35354+P23219); test: Selectivity index, ratio of IC50 for COX-1 (unknown origin) to IC50 for COX-2 (unknown origin); format: protein assay
[11] = target: T3, Prostaglandin G/H synthase 2 (Homo sapiens, UniProt P35354); test: Inhibition of COX-2 (unknown origin)
T3 sequence (P35354 whole entry): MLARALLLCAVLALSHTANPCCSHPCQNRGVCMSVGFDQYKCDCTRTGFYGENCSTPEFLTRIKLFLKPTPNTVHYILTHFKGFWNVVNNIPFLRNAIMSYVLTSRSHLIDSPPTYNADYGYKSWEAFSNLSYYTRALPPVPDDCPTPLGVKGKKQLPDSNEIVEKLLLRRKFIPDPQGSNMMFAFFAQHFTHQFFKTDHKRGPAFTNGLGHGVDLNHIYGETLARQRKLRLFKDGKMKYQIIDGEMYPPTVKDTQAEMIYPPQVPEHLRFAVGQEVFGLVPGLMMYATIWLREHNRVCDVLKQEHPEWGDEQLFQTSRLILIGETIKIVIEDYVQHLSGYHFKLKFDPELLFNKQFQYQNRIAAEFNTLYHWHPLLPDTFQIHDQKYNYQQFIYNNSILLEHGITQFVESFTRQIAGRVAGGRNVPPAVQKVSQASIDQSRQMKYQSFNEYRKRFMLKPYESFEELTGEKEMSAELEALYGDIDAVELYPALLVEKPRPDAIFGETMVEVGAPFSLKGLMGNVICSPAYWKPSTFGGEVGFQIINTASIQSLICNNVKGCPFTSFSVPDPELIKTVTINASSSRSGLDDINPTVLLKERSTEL

[12] = tested on: BV-2; test: Antiinflammatory activity in mouse BV-2 cells assessed as reduction in LPS-induced nitric oxide production at 10 uM relative to control; format: functional; design: scale not given: the % may be the effect or the level left

Chain of COX-1/COX-2 (Homo sapiens) (P23219 whole entry, looked up, one chain of several): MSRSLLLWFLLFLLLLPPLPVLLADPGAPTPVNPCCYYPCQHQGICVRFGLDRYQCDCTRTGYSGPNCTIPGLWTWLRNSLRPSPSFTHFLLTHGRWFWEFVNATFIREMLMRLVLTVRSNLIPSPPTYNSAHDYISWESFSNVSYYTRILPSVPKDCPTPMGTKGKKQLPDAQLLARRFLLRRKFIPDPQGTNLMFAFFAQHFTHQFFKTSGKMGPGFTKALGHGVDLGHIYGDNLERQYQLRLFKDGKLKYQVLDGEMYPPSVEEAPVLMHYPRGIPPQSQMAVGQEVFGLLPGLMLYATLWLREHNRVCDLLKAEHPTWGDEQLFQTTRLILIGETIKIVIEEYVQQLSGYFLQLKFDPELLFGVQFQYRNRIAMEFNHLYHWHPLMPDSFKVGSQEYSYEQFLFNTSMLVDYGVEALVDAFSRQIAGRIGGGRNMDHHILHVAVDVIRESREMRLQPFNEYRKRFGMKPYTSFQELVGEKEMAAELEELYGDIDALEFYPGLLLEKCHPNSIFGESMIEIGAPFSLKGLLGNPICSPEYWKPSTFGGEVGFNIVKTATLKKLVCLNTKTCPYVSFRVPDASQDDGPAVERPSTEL

Structure (SMILES): Cc1c(C(=O)/C=C/c2ccc(Cl)cc2Cl)c(C(=O)/C=C/c2ccc(Cl)cc2Cl)nn1-c1ccc(Br)cc1
Activity [1]: 9.26%

Structure (SMILES): CN(C)c1ccc(/C=C/C=C/C(=O)c2ccc(OCCCOc3ccc(C(=O)/C=C/C=C/c4ccc(N(C)C)cc4)cc3)cc2)cc1
inhibition [2]: 93%
IC50 [3]: 56 µM

Structure (SMILES): COc1ccc(/C=C/C(=O)c2nn(-c3ccc(C)cc3)c(C)c2C(=O)/C=C/c2ccc(OC)cc2)cc1
Activity [4]: 43.78%
Activity [5]: 59.87%
Activity [6]: 27.43%
Activity [7]: 21.38%

Structure (SMILES): Cc1c(C(=O)/C=C/c2ccco2)c(C(=O)/C=C/c2ccco2)nn1-c1ccc(Br)cc1
Activity [1]: 1.07%

Structure (SMILES): Cc1c(C(=O)/C=C/c2ccc(Cl)cc2)c(C(=O)/C=C/c2ccc(Cl)cc2)nn1-c1ccccc1
Activity [4]: 57.97%
Activity [5]: 53.2%
Activity [6]: 24.37%
Activity [7]: 28.31%

Structure (SMILES): COc1ccc(/C=C/C(=O)c2nn(-c3ccccc3)c(C)c2C(=O)/C=C/c2ccc(OC)cc2)cc1
Activity [4]: 73.56%
Activity [5]: 71.35%
Activity [6]: 32.69%
Activity [7]: 35.92%

Structure (SMILES): Cc1c(C(=O)/C=C/c2ccco2)c(C(=O)/C=C/c2ccco2)nn1-c1ccc(F)cc1
Activity [1]: 16.79%

Structure (SMILES): O=C(/C=C/c1cccc2ccccc12)c1ccc(OCCCOc2ccc(C(=O)/C=C/c3cccc4ccccc34)cc2)cc1
inhibition [2]: 100%
IC50 [3]: 55 µM

Structure (SMILES): Cc1c(C(=O)/C=C/c2ccc(Cl)cc2Cl)c(C(=O)/C=C/c2ccc(Cl)cc2Cl)nn1-c1ccc(Cl)cc1
Activity [1]: 15.36%

Structure (SMILES): Cc1ccc(-n2nc(C(=O)/C=C/c3ccc(Cl)cc3Cl)c(C(=O)/C=C/c3ccc(Cl)cc3Cl)c2C)cc1
Activity [1]: 10.71%

Structure (SMILES): Cc1ccc(-n2nc(C(=O)/C=C/c3ccccc3)c(C(=O)/C=C/c3ccccc3)c2C)cc1
Activity [4]: 61.76%
Activity [5]: 62.69%
Activity [6]: 28.72%
Activity [7]: 30.16%

Structure (SMILES): COc1cc(/C=C/C(=O)c2cccc(C(=O)/C=C/c3ccc(O)c(OC)c3)c2)ccc1O
Activity [12]: 70%

Structure (SMILES): Cc1c(C(=O)/C=C/c2ccco2)c(C(=O)/C=C/c2ccco2)nn1-c1ccccc1
Activity [4]: 58.6%
Activity [5]: 61.45%
Activity [6]: 28.15%
Activity [7]: 28.61%

Structure (SMILES): Cc1c(C(=O)/C=C/c2ccc(Cl)cc2Cl)c(C(=O)/C=C/c2ccc(Cl)cc2Cl)nn1-c1ccccc1
Activity [1]: 12.86%

Structure (SMILES): Cc1ccc(-n2nc(C(=O)/C=C/c3ccc(Cl)cc3)c(C(=O)/C=C/c3ccc(Cl)cc3)c2C)cc1
Activity [4]: 53.08%
Activity [5]: 59.87%
Activity [6]: 21.23%
Activity [7]: 25.92%

Structure (SMILES): Cc1c(C(=O)/C=C/c2ccccc2)c(C(=O)/C=C/c2ccccc2)nn1-c1ccccc1
Activity [4]: 79.67%
Activity [5]: 77.66%
Activity [6]: 32.58%
Activity [7]: 38.9%

Structure (SMILES): Cc1ccc(-n2nc(C(=O)/C=C/c3ccco3)c(C(=O)/C=C/c3ccco3)c2C)cc1
Activity [4]: 23.2%
Activity [5]: 21.14%
Activity [6]: 9.69%
Activity [7]: 11.33%

Structure (SMILES): Cc1c(C(=O)/C=C/c2ccc(Cl)cc2Cl)c(C(=O)/C=C/c2ccc(Cl)cc2Cl)nn1-c1ccc(F)cc1
Activity [1]: 13.57%

Continued, in another order:

inhibition [2]: 65%
Structure (SMILES): CN(C)c1ccc(/C=C/C=C/C(=O)c2ccc(OCCCCCCCOc3ccc(C(=O)/C=C/C=C/c4ccc(N(C)C)cc4)cc3)cc2)cc1

inhibition [2]: 52%
Structure (SMILES): Cc1ccc(/C=C/C(=O)c2ccc(OCCCOc3ccc(C(=O)/C=C/c4ccc(C)o4)cc3)cc2)o1

IC50 [8]: 4.5 µM
Structure (SMILES): O=C1/C(=C/c2ccccn2)CNC/C1=C\c1ccccn1
inhibition [9]: 100%

inhibition [2]: 98%
Structure (SMILES): O=C(/C=C/c1c[nH]c2ccccc12)c1ccc(OCCCOc2ccc(C(=O)/C=C/c3c[nH]c4ccccc34)cc2)cc1

inhibition [2]: 27%
Structure (SMILES): CN(C)c1ccc(/C=C/C=C/C(=O)c2ccc(OCCCCOc3ccc(C(=O)/C=C/C=C/c4ccc(N(C)C)cc4)cc3)cc2)cc1

inhibition [2]: 32%
Structure (SMILES): O=C(/C=C/c1cccs1)c1ccc(OCCCOc2ccc(C(=O)/C=C/c3cccs3)cc2)cc1

Ratio IC50 [10]: 65.3
IC50 [11]: 1.5 µM
Structure (SMILES): Cc1c(C(=O)/C=C/c2ccco2)c(C(=O)/C=C/c2ccco2)nn1-c1ccc(Cl)cc1
Activity [1]: 27.86%

Ratio IC50 [10]: 333
IC50 [11]: 0.3 µM
Structure (SMILES): COc1ccc(/C=C/C(=O)c2nn(-c3ccc(Cl)cc3)c(C)c2C(=O)/C=C/c2ccc(OC)cc2)cc1
Activity [1]: 66.21%

inhibition [2]: 41%
Structure (SMILES): O=C(/C=C/C=C/c1ccccc1)c1ccc(OCCCOc2ccc(C(=O)/C=C/C=C/c3ccccc3)cc2)cc1

inhibition [2]: 26.5%
Structure (SMILES): CC(/C=C/C(=O)c1ccc(OCCCOc2ccc(C(=O)/C=C/C(C)=C/c3ccccc3)cc2)cc1)=C\c1ccccc1

inhibition [2]: 57%
Structure (SMILES): O=C(/C=C/c1ccco1)c1ccc(OCCCOc2ccc(C(=O)/C=C/c3ccco3)cc2)cc1

inhibition [2]: 100%
IC50 [3]: 55 µM
Structure (SMILES): O=C(/C=C/c1ccc(Oc2ccccc2)cc1)c1ccc(OCCCOc2ccc(C(=O)/C=C/c3ccc(Oc4ccccc4)cc3)cc2)cc1

inhibition [2]: 23%
Structure (SMILES): CN(C)c1ccc(/C=C/C=C/C(=O)c2ccc(OCCCCCOc3ccc(C(=O)/C=C/C=C/c4ccc(N(C)C)cc4)cc3)cc2)cc1

inhibition [2]: 7%
Structure (SMILES): CN(C)c1ccc(/C=C/C=C/C(=O)c2ccc(OCCCCCCOc3ccc(C(=O)/C=C/C=C/c4ccc(N(C)C)cc4)cc3)cc2)cc1

inhibition [2]: 95%
Structure (SMILES): O=C(/C=C/C=C/c1ccc([N+](=O)[O-])cc1)c1ccc(OCCCOc2ccc(C(=O)/C=C/C=C/c3ccc([N+](=O)[O-])cc3)cc2)cc1

inhibition [2]: 24.5%
Structure (SMILES): O=C(/C=C/C(Br)=C/c1ccccc1)c1ccc(OCCCOc2ccc(C(=O)/C=C/C(Br)=C/c3ccccc3)cc2)cc1

Ratio IC50 [10]: 312
IC50 [11]: 0.32 µM
Structure (SMILES): COc1ccc(/C=C/C(=O)c2nn(-c3ccc(F)cc3)c(C)c2C(=O)/C=C/c2ccc(OC)cc2)cc1
Activity [1]: 65.21%

inhibition [2]: 76%
Structure (SMILES): O=C(/C=C/c1ccccc1)c1ccc(OCCCOc2ccc(C(=O)/C=C/c3ccccc3)cc2)cc1

inhibition [2]: 41%
Structure (SMILES): O=C(/C=C/c1ccc(OCc2ccc(Br)cc2)cc1)c1ccc(OCCCOc2ccc(C(=O)/C=C/c3ccc(OCc4ccc(Br)cc4)cc3)cc2)cc1

Ratio IC50 [10]: 76
IC50 [11]: 0.7 µM
Structure (SMILES): COc1ccc(/C=C/C(=O)c2nn(-c3ccc(Br)cc3)c(C)c2C(=O)/C=C/c2ccc(OC)cc2)cc1

inhibition [2]: 77%
Structure (SMILES): CN(C)c1ccc(/C=C/C=C/C(=O)c2ccc(OCCOc3ccc(C(=O)/C=C/C=C/c4ccc(N(C)C)cc4)cc3)cc2)cc1

inhibition [2]: 12%
Structure (SMILES): CN(C)c1ccc(/C=C/C=C/C(=O)c2ccc(OCCCCCCCCOc3ccc(C(=O)/C=C/C=C/c4ccc(N(C)C)cc4)cc3)cc2)cc1
